# Patent publication US20060156421A1, “High throughput screening methods for anti-metastatic compounds” (priority 2004, published 2006)
# Assays:
# Drosophila = Drosophila melanogaster, in vivo
# From the text: Lethality of candidate compounds for Drosophila can be used to detect and quantify toxicity of candidate compounds. Well known standard statistical methods are used to help distinguish chance results from real toxic effects. Lethality is quantified, for example, by determining the number of Drosophila that fail to develop successfully to adulthood and applying suitable statistical analyses to determine statistical significance. Lethal dose evaluations can be used to quantify the extent of toxicity. […] In another exemplary example, the emergence of most Drosophila adults within a microwell indicates a lowered probability that an introduced compound is toxic.
# FIG. 3 illustrates in part the results of screening compound ZD6474 according to the screening methods of the present invention. […] Therefore, the estimated therapeutic index (ratio of concentrations that are toxic to Drosophila to concentrations that reduce the retinal phenotype is […].
# dRet^MEN2B = assay: Drosophila screening: rough eye phenotype of GMR-dRet^MEN2B flies fed compound in microtiter wells; type: in vivo, Drosophila melanogaster
# Protocol: (§1) Accordingly, methods, related apparatus and kits for high throughput screening assays involve the preparation of microtiter plates each with multiple wells, wherein each well initially contains one or more Drosophila embryos with a transgene and an amount of a Drosophila growth medium. The embryos develop while feeding on the growth medium. The precise age of the embryos at the time they are plated matters less than the fact that they are all about the same age, to permit accurate evaluation of the possible effects of the candidate compound on larval and pupal development.
# (§2) To prepare the microtiter plates, for example, 96-well microtiter plates are used, such as those commonly commercially available and typically used for various laboratory assay techniques, including other high throughput drug assay techniques. Into each well is pipetted 50-100 μl of standard Drosophila growth medium. An exemplary range of about 50 to about 100 μl is a balance between (i) providing sufficient food so as not to place undue feeding stress on the developing flies and (ii) providing sufficient air space for the third larval instars to find sufficient wall space to pupate and for minimal stress on the developing larvae and pupae. Any one of several standard Drosophila growth medium recipes as known in the art of breeding Drosophila for research can be used.
# In an exemplary embodiment, a candidate compound, or cocktail of more than one compound, that has been selected for screening is prepared in EtOH or DMSO/aqueous solution. In an exemplary embodiment, EtOH is used. Although DMSO can be used, it can be toxic if it reaches final concentrations of more than 0.3% of the growth medium. The compound in solution is added and allowed to diffuse through the growth medium for an initial period of about 16 to about 24 hours. Alternatively, the compound in solution is mixed with the food by pipetting, by shaking, or by sonicating. […]
# dRet = assay: Drosophila screening: rough eye phenotype of GMR-dRet flies fed compound in microtiter wells; type: in vivo, Drosophila melanogaster; conditions: compound in growth medium
# Protocol: as §1
# as §2, with “used. […]” for “used.”
# VEGF-class receptors = conditions: literature citations; cited from earlier work
# Ret = conditions: previously tested, Carlomagno et al., 2002; cited from earlier work
smiles,measurement,setting,value
COc1cc2c(Nc3ccc(Br)cc3F)ncnc2cc1OCC1CCN(C)CC1 [ZD6474],concentrations at which toxicity was observed,Drosophila,≥ 2500 µM
same,estimated therapeutic index (ratio of concentrations toxic to Drosophila to concentrations that reduce the retinal phenotype),Drosophila,31
same,inhibition of severity of the rough eye phenotype of dRet^MEN2B,"dRet^MEN2B; Drosophila eye, compound in growth medium",strongly inhibit
same,rescue of the dRet^MEN2B phenotype,"dRet^MEN2B; FIG. 3 panels, varying concentration",concentration-dependent
same,doses at which at least partial rescue was observed,"dRet^MEN2B; retinal phenotype, lowest effective concentration",≥ 0.04 mM
same,inhibition of severity of the rough eye phenotype of dRet,dRet,strongly inhibit
same,efficacy for VEGF-class receptors,VEGF-class receptors,some efficacy
same,effect on Ret activity in a tissue culture model,Ret,reduce Ret activity
